Laboratory results taken from patent publication US20250304623A1, “PEPTIDES FOR INTRACELLULAR DELIVERY” (UNIVERSIDADE DE SANTIAGO DE COMPOSTELA, priority 2022, published 2025).
Starred links: 1 amine or outer side, 2 acyl side, 3 side chain; linkers in the order of their positions; H or OH if unused. Residues, ends and D or L forms follow the SMILES beside them. Groups on a side chain read outwards from the residue. *: point of attachment. Glutaryl = O=C(CCCC(=O)[*:2])[*:1]; NHNH2 = NN*

Columns and labels:
Type in all cases: cell-based
ARPE19 cells = test: EGFP mRNA delivery, robotic library screening, ARPE19
Method: (§1) Cells were seeded in a 96 well plate the day before the experiment at a concentration of 50,000 cell/mL (100 μL/w) in DMEM+10% FBS+1% Gln-Abt. For robotic library screening, the delivery of EGFP-mRNA (from TriLink, fully substituted with 5-methoxyuridine, capped and polyadenylated; TriLink, CleanCap® EGFP mRNA (5moU), ref. L-7201) in six different cell lines was performed. Amphiphilic molecule stock solutions were prepared in DMSO as described above and diluted in DMEM to afford a range of concentrations. The solutions of EGFP-mRNA/amphiphilic molecule complexes were freshly prepared prior to the transfection experiments. 35 μL of the corresponding amphiphile were added to 10 μL of a solution of EGFP-mRNA at 10 ng/μL in DMEM. The mixture was shaken for 30 min at room temperature before the addition to the cells. The cell medium was aspirated, and cells were washed with PBS twice. Cells were covered with 39 μL of DMEM and 11 μL of the complex's solution were added to the cells and incubated for 4 h (final concentration of peptide=2.5, 5 and 10 μM; final concentration of EGFP-mRNA=25 ng/well). After the incubation, the medium was replaced by 100 μL of fresh DMEM supplemented with 10% FBS. The total EGFP fluorescence was quantified after 72 h in a well plate reader. Amphiphile transfection efficiency was compared and normalized to Lipofectamine® MessengerMax efficiency (value of 1 in Tables 1-5 and 7; double underlined numbers). All experiments were done in triplicate.
(§2) Tables 1-7: RLuc (pDNA) or EGFP (mRNA) expression levels were normalized to Lipofectamine reagents (value=1) and expressed as fold-times signal increase. In the case of siRNA, the siRNA treated cells fluorescence was compared with siMOCK control fluorescence, while Cas9-RNP mediated knockout was measured against the fluorescence of untreated cells. In both siRNA and Cas9-RNP, values are expressed as % fluorescence reduction. Amphiphile concentration was 5 μM in all cases. All experiments were performed in triplicate.
(§3) Tables 14-19 show the mean (triplicates) fluorescence intensity measured after the transfection of EGFP mRNA by different amphiphiles at different concentrations in a variety of cell lines. Background fluorescence values, accounted by untreated control cells, were subtracted for processing.

HepG2 cells = test: EGFP mRNA delivery, robotic library screening, HepG2; conditions: for mean fluorescence intensity after transfection of EGFP mRNA: HepG2 cells
Method: as §1, with “Cells were covered with 39 μL of DMEM and 11 μL of the complex's solution were added to the cells and incubated for 4 h (final concentration of peptide=2.5, 5 and 10 μM; final concentration of EGFP-mRNA=25 ng/well).” left out
as §2, §3

[1] = test system: HCT116 cells expressing EGFP; test: EGFP-targeting siRNA delivery (GFP silencing vs siMOCK), HCT116
Method: To generate an EGFP expressing HeLa cell line, HeLa cells were transfected with EGFP pDNA (pEGFP-C1, Clontech) and stable transfectants were selected with 400 μg/mL of G-418 (Millipore). Green clones were selected by epifluorescence microscopy and tested for EGFP expression stability through several passages. […] All other EGFP-expressing cell lines were obtained in a similar way from parent non-EGFP-expressing cell lines.
Cells expressing EGFP were seeded in a 96 well plate the day before the experiment at a concentration of 50,000 cell/mL (100 μL/w) in DMEM+10% FBS+1% Gln-Abt. For robotic library screening, the delivery of an EGFP-targeting siRNA (EGFP: enhanced green fluorescent protein, Ambion® Silencer® GFP Positive Control siRNA (siGFP) (AM4626)) in six different cell lines expressing EGFP was performed. Amphiphilic molecules stock solutions in DMSO were diluted with DMEM and freshly mixed with siRNA stock solutions in DMEM prior to transfection experiments, to afford several complexes at different amphiphile concentration (2-10 μM) while maintaining a constant final siRNA concentration of 30 nM. The mixture was shaken for 30 min at room temperature (rt) before the addition to the cells. The cell medium was aspirated, and cells were washed twice with PBS. Finally, 50 μL of the solution of siRNA/amphiphile complexes were added to the cells and incubated for 4 h. After transfection, the medium was replaced by 100 μL of fresh DMEM supplemented with 10% FBS. The fluorescence knockdown was quantified after 72 h in a plate reader, by comparison with cells transfected with a non-targeting siRNA control (siMOCK, Silencer™ Negative Control No. 1 siRNA (siMOCK) (AM4611)). EGFP knockdown was compared with Lipofectamine® RNAiMAX silencing efficiency (30-60% depending on cell line, defined with a numeric value in the below tables). All experiments were done in triplicate.
as §2
Tables 20-25 show the mean (triplicates) percentage of GFP-silencing, accounted by fluorescence intensity decrease relative to a non-targeting siRNA (siMOCK) control, measured after the transfection of siRNA by different amphiphiles at different concentrations in a variety of cell lines. Background values, accounted by untreated control cells, were subtracted for processing.

`CC(=O)N[C@@H](CCCNC(=N)N)C(=O)N[C@@H](CCCCNC(=O)CCCC(=O)NN)C(=O)N[C@@H](Cc1c[nH]cn1)C(=O)N[C@@H](CCCNC(=N)N)C(=O)N[C@@H](CCCCNC(=O)CCCC(=O)NN)C(=O)N[C@@H](CCCCNC(=O)CCCC(=O)NN)C(=O)N[C@@H](Cc1c[nH]cn1)C(N)=O` [7.3(L-H), Ac-RK*HRK*K*H-NH2] (Ac-RK([Glutaryl-NHNH2])HRK([Glutaryl-NHNH2])K([Glutaryl-NHNH2])H-NH2) was tested, and the “mean fluorescence intensity (EGFP mRNA)” value (ARPE19 cells; Myristoleyl, 2.5 μM) was 22958, the “mean fluorescence intensity (EGFP mRNA)” value (ARPE19 cells; Myristoleyl, 5 μM) was 6178 and the “mean fluorescence intensity (EGFP mRNA)” value (ARPE19 cells; Myristoleyl, 10 μM) was 1216. For the same compound, the “mean fluorescence intensity (EGFP mRNA)” value (ARPE19 cells; Oleyl, 5 μM) was 9014, the “mean fluorescence intensity (EGFP mRNA)” value (ARPE19 cells; Oleyl, 10 μM) was 4676 and the “mean fluorescence intensity (EGFP mRNA)” value (ARPE19 cells; Palmitoleyl, 2.5 μM) was 35030. The “mean fluorescence intensity (EGFP mRNA)” value (ARPE19 cells; Palmitoleyl, 5 μM) was 28077, the “mean fluorescence intensity (EGFP mRNA)” value (ARPE19 cells; Palmitoleyl, 10 μM) was 4574 and the “mean fluorescence intensity (EGFP mRNA)” value (ARPE19 cells; Petroselinyl, 2.5 μM) was 6471. The “mean fluorescence intensity (EGFP mRNA)” value (ARPE19 cells; Petroselinyl, 5 μM) was 38057, the “mean fluorescence intensity (EGFP mRNA)” value (ARPE19 cells; Petroselinyl, 10 μM) was 29449 and the “mean fluorescence intensity after transfection of EGFP mRNA” value (HepG2 cells; Dodecanal, 5 μM) was 1140. For the same compound, the “mean fluorescence intensity after transfection of EGFP mRNA” value (HepG2 cells; Dodecanal, 10 μM) was 201, the “mean fluorescence intensity after transfection of EGFP mRNA” value (HepG2 cells; Dodecanal, 15 μM) was 533 and the “mRNA delivery relative to Lipofectamine MessengerMAX” value (HepG2 cells; HepG2, myristoleyl or petroselinyl aldehydes) was “able to outperform the activity of Lipofectamine® MessengerMAX”. The “mean fluorescence intensity after transfection of EGFP mRNA” value (HepG2 cells; Myristoleyl, 5 μM) was 31364, the “mean fluorescence intensity after transfection of EGFP mRNA” value (HepG2 cells; Myristoleyl, 10 μM) was 12495 and the “mean fluorescence intensity after transfection of EGFP mRNA” value (HepG2 cells; Myristoleyl, 15 μM) was 3194. The “mean fluorescence intensity after transfection of EGFP mRNA” value (HepG2 cells; Oleyl, 5 μM) was 4242, the “mean fluorescence intensity after transfection of EGFP mRNA” value (HepG2 cells; Oleyl, 10 μM) was 1217 and the “mean fluorescence intensity after transfection of EGFP mRNA” value (HepG2 cells; Oleyl, 15 μM) was 1484. For the same compound, the “mean fluorescence intensity after transfection of EGFP mRNA” value (HepG2 cells; Palmitoleyl, 5 μM) was 8855, the “mean fluorescence intensity after transfection of EGFP mRNA” value (HepG2 cells; Palmitoleyl, 10 μM) was 3885 and the “mean fluorescence intensity after transfection of EGFP mRNA” value (HepG2 cells; Petroselinyl, 5 μM) was 35842. The “mean fluorescence intensity after transfection of EGFP mRNA” value (HepG2 cells; Petroselinyl, 10 μM) was 18737, the “mean fluorescence intensity after transfection of EGFP mRNA” value (HepG2 cells; Petroselinyl, 15 μM) was 4860 and the “percentage of GFP-silencing relative to siMOCK” value ([1]; Dodecanal, 5 μM) was −10%. For the same compound, the “percentage of GFP-silencing relative to siMOCK” value ([1]; Dodecanal, 10 μM) was 5%, the “percentage of GFP-silencing relative to siMOCK” value ([1]; Myristoleyl, 10 μM) was 49% and the “percentage of GFP-silencing relative to siMOCK” value ([1]; Myristoleyl, 15 μM) was 3%. For the same compound, the “percentage of GFP-silencing relative to siMOCK” value ([1]; Oleyl, 5 μM) was 24%, the “percentage of GFP-silencing relative to siMOCK” value ([1]; Oleyl, 15 μM) was 46% and the “percentage of GFP-silencing relative to siMOCK” value ([1]; Palmitoleyl, 5 μM) was 21%. For the same compound, the “percentage of GFP-silencing relative to siMOCK” value ([1]; Palmitoleyl, 10 μM) was 56%, the “percentage of GFP-silencing relative to siMOCK” value ([1]; Palmitoleyl, 15 μM) was 38% and the “percentage of GFP-silencing relative to siMOCK” value ([1]; Petroselinyl, 5 μM) was 4%. For the same compound, the “percentage of GFP-silencing relative to siMOCK” value ([1]; Petroselinyl, 10 μM) was 24% and the “percentage of GFP-silencing relative to siMOCK” value ([1]; Petroselinyl, 15 μM) was 43%.
In the case of “Ac-RHLK*RHK*RRLK*RH-NH2 (Ac-RHLKRHKRRLKRH-NH2; not fully specified (residues 4, 7, 11); printed as Ac-RHLK*RHK*RRLK*RH-NH2; also: linker on K* not given here) [13(3His)]”, the “mean fluorescence intensity (EGFP mRNA)” value (ARPE19 cells; Myristoleyl, 5 μM) is reported as 393, the “mean fluorescence intensity (EGFP mRNA)” value (ARPE19 cells; Petroselinyl, 2.5 μM) is reported as 596 and the “mean fluorescence intensity (EGFP mRNA)” value (ARPE19 cells; Petroselinyl, 5 μM) is reported as 384. The “mean fluorescence intensity (EGFP mRNA)” value (ARPE19 cells; Petroselinyl, 10 μM) was 508, the “percentage of GFP-silencing relative to siMOCK” value ([1]; Dodecanal, 10 μM) was 62% and the “percentage of GFP-silencing relative to siMOCK” value ([1]; Dodecanal, 15 μM) was 56%. For the same compound, the “percentage of GFP-silencing relative to siMOCK” value ([1]; Myristoleyl, 10 μM) was 45%, the “percentage of GFP-silencing relative to siMOCK” value ([1]; Myristoleyl, 15 μM) was 29% and the “percentage of GFP-silencing relative to siMOCK” value ([1]; Oleyl, 15 μM) was 31%. For the same compound, the “percentage of GFP-silencing relative to siMOCK” value ([1]; Palmitoleyl, 10 μM) was 56%, the “percentage of GFP-silencing relative to siMOCK” value ([1]; Petroselinyl, 5 μM) was 13% and the “percentage of GFP-silencing relative to siMOCK” value ([1]; Petroselinyl, 10 μM) was 60%. The “percentage of GFP-silencing relative to siMOCK” value ([1]; Petroselinyl, 15 μM) was 27%.
